The source of these data is US7825231B2 (priority 2005, dated 2010).

“Also recorded” adds a separate entry of the source.

Common to all, as to format: in vivo, rat
For experiment [1], the system named is rats with SNL. As to the kind of experiment: Spinal nerve ligation model of neuropathic pain: mechanical allodynia (von Frey hairs). As to conditions: intrathecal. From the text:
(§1) The spinal nerve ligation model was utilized to produce mechanical allodynia and thermal hyperalgesia, hallmarks of neuropathic pain(41).
(§2) Male Sprague-Dawley rats weighing 225 to 250 g underwent selective L5 SNL with the approval of the University Committee on Use and Care of Animals(53). Under isoflurane anesthesia, an incision was made in the atlanto-occipital membrane, a polyethylene (PE-10) catheter, filled with 0.9% saline, was advanced 8.5 cm caudally to position its tip at the level of the lumbar enlargement. The rostral tip of the catheter was passed subcutaneously, externalized on top of the skull, and sealed with a stainless-steel plug. One week after implantation of the intrathecal catheter, L5 spinal nerve ligation (SNL) was performed. […]
(§3) Mechanical allodynia induced by SNL was determined by assessing the response of paw withdrawal to von Frey hairs of graded tensile strength as described previously with a tactile stimulus producing a 50% likelihood of withdrawal determined using the up-down method(53, 71, 72). Thermal hyperalgesia was determined using a Hargreaves apparatus recording the time to withdrawal from a radiant thermal stimulus positioned directly under the hind paw(73). […]

Experiment [2] deals with rats with SNL. As to the kind of experiment: Spinal nerve ligation model of neuropathic pain: thermal hyperalgesia (Hargreaves apparatus). The settings on record: intrathecal.
Source text: as §1, §2, §3

For experiment [3], the system named is male Sprague-Dawley rats. As to the kind of experiment: CFA model of inflammatory pain: weight bearing (incapacitance analgesia meter). As to conditions: three days after CFA injury. Here is the method: (§4) Inflammatory injury was induced by injection of 150 μL CFA in the left-hind paw of male Sprague-Dawley rats.
Weight-bearing ability in the CFA model was measured using an incapacitance analgesia meter. […] The effect of vEM2 was reversed by intrathecal (FIG. 7B) or intraperitoneal (FIG. 7C) administration of Nal-M.

The test system of experiment [4] is male Sprague-Dawley rats. As to the kind of experiment: CFA model of inflammatory pain: thermal hyperalgesia (Hargreaves apparatus). As to conditions: three days after CFA injury. Here is the method:
(§5) Mechanical allodynia induced by SNL was determined by assessing the response of paw withdrawal to von Frey hairs of graded tensile strength as described previously with a tactile stimulus producing a 50% likelihood of withdrawal determined using the up-down method(53, 71, 72). Thermal hyperalgesia was determined using a Hargreaves apparatus recording the time to withdrawal from a radiant thermal stimulus positioned directly under the hind paw(73). Parametric statistics, using the general linear model for repeated measures were used to identify significant effects of treatment condition on the behavioral measure of neuropathic pain. The results were examined for a main effect of treatment group. All statistical analyses were performed using the software package, SPSS 13.0 for Windows (SPSS Inc., Chicago, Ill.).
as §4
Thermal hyperalgesia was tested using a Hargreaves apparatus as in Example 2.

Experiment [5] concerns male Sprague-Dawley rats. As to the kind of experiment: CFA model of inflammatory pain: mechanical allodynia (von Frey hairs). As to conditions: three days after CFA injury. Here is the method:
as §5, §4
Mechanical allodynia was tested using von Frey hair stimulation as described in Example 2. […] The antiallodynic effect of vEM2 was reversed by intrathecal (FIG. 5B) or intraperitoneal (FIG. 5C) administration of Nal-M.

The mark [6] stands for this setting: 10 days after vEM2 in rats with SNL.

For CTOP, in the experiment with rats with SNL [1] (setting [6]), the “effect on the antiallodynic effect produced by vEM2” value is “reversed”. Besides, the “effect on mechanical threshold, given alone” value in the experiment on rats with SNL [1] (normal animals, data not shown) was “did not affect”. Moreover, the “effect on the antihyperalgesic effect produced by vEM2” value with rats with SNL [2] (setting [6]) is “reversed”. Besides, the “effect on thermal latency, given alone” value in the experiment on rats with SNL [2] (normal animals, data not shown) is on record as “did not affect”.
For `C=CC[N+]1(C)CC[C@]23c4c5ccc(O)c4O[C@H]2C(=O)CC[C@@]3(O)[C@H]1C5` (stereo partly shown) [Nal-M, naloxone-methiodide], the “effect on the effect of vEM2 (weight bearing differential)” value in the experiment on male Sprague-Dawley rats [3] (intraperitoneal) and with male Sprague-Dawley rats [3] (intrathecal) was “reversed” in each case. For the same compound, the “effect on the anti-hyperalgesic effect of vEM2 (thermal latency)” value is listed as “reversed” in the experiment on male Sprague-Dawley rats [4] (intraperitoneal) and “not significantly affected; also recorded: did not significantly counteract” with male Sprague-Dawley rats [4] (intrathecal). For the same compound, the “effect on the antiallodynic effect of vEM2 (mechanical threshold)” value in the experiment with male Sprague-Dawley rats [5] (intraperitoneal) and in the experiment on male Sprague-Dawley rats [5] (intrathecal) was “reversed” throughout.
